From US10201563B2, “Method of treating sinusitis, including chronic sinusitis” (SINOX PHARMA, INC., priority 2010, dated 2019)

How the values were obtained:
[1] = U.S. Pat. No. 5,731,347; Phase 2 clinical study; cited from earlier work
[2] = Gargle and nasal spray with ClO2 solution in people with sore throat, cold or sinusitis; settings: in vivo
viruses [3] = assay type: cell-based
[4] = tested on: most microorganisms, including gram negative bacteria, fungal spores, and viruses; assay type: cell-based
viruses [5] = settings: cited from earlier work
flu viruses = settings: cited from earlier work

Molecule	therapy for canker sores in the mouth [1]	inflammation and discomfort noted by users [2]	toxicity or irritation to the mucus membranes [2]	deactivation of all viruses (viruses [3])	time to kill most microorganisms [4]	inactivation of all viruses tested (viruses [5])	kill of all flu viruses (flu viruses)
CC(O)C(=O)O (stereo not shown) [lactic acid]	excellent therapy						
chlorine dioxide		near-immediate reductions	non toxic or non-irritating	deactivated in seconds	about one	inactivated within a minute	in a few seconds
